Values joined by “and” are separate entries in the source; they are usually repeats but may differ in a detail not shown here. Identical values can stand only once. “Also recorded” adds a separate entry of the source. Like-named read-outs stand apart in the source and are kept apart here.
How the values were obtained:
PI3Kδ = PI3Kδ (Homo sapiens, UniProt O00329); assay: PI3K kinase activity, δ isoform; conditions: for inhibition at 0.02 µM: read-out: IH (%) @ 20 nM, δ; for selectivity for PI3Kδ (in words): versus other PI3K isoforms, from Tables 1 and 2
PI3Kδ, sequence (O00329 whole entry, canonical isoform): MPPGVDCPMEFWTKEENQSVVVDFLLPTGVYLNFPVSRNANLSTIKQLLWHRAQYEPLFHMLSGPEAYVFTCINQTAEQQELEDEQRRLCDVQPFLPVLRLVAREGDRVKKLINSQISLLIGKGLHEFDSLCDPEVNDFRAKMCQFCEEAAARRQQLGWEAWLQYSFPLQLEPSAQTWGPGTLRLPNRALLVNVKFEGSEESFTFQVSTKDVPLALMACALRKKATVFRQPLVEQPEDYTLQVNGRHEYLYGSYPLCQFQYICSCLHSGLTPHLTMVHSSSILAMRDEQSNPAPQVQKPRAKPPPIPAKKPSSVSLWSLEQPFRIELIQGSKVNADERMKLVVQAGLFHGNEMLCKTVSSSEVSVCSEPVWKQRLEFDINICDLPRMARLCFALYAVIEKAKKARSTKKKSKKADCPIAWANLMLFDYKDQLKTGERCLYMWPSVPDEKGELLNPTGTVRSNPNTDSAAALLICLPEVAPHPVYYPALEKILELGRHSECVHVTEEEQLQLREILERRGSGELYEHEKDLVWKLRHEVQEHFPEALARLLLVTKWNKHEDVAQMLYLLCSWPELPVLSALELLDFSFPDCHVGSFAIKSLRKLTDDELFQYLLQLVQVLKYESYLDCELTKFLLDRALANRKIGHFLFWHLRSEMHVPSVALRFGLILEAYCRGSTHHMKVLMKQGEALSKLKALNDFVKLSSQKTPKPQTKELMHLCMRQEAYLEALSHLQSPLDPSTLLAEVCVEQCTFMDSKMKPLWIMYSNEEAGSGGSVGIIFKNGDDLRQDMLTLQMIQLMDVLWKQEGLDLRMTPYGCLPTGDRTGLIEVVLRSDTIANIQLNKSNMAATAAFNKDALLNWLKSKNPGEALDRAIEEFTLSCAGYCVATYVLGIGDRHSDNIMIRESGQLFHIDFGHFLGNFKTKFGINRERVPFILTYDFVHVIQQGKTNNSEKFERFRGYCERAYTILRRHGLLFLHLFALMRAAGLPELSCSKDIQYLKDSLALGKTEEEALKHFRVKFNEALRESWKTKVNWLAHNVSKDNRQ
PI3Kδ, sequence (P27986 whole entry partner, canonical isoform): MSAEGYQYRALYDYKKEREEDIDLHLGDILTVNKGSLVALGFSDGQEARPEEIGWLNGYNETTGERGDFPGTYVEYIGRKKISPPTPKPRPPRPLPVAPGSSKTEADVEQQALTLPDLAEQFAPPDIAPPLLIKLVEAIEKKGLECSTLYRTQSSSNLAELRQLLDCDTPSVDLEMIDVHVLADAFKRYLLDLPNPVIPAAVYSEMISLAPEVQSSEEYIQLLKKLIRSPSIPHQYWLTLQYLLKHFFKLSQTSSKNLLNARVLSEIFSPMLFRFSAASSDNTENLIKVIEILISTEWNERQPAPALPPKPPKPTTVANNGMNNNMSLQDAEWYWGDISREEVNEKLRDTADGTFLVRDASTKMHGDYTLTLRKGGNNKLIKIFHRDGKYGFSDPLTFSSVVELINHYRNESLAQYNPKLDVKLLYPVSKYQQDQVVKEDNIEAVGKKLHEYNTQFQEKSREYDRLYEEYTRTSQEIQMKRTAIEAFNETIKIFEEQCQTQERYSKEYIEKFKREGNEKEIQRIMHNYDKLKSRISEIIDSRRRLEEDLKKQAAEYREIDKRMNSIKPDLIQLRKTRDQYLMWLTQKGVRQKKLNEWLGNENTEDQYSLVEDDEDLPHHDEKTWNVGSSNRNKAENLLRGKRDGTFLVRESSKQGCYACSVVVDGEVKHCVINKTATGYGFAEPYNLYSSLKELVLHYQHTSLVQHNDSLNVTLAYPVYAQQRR
Procedure: (§6) Concentration setting for preliminary screening: the compounds to be tested were dissolved in DMSO (dimethyl sulfoxide) to 100 μM or 10 μM as storage solutions; for each one, 2 μL was taken to be added to 48 μL of 1× Reaction Buffer to obtain a 4 μM or 400 nM compound solution containing 4% DMSO. After well mixing, the mixture was diluted with 4% DMSO in 1× Reaction Buffer to obtain a 4 μM or 400 nM compound solution. 5 μL of each diluted solution was taken to be added to a 384-well plate, so that the final concentration of the compound in the final 20 μL of the kinase reaction system was 1 μM and 100 nM or 100 nM and 20 nM, respectively, and containing 1% DMSO.
(§7) The compounds to be tested were dissolved in DMSO to 1 mM or 10 mM as working solutions, 1 μL of each working solution was taken to be added to 24 μl of 1× Kinase Buffer A to obtain a 40 μM or 400 μM compound solution containing 4% DMSO. The compound solution was diluted by 4× gradient in sequence, 10 dilution concentrations.
(§8) Calculation of the Inhibition Rate • The inhibitory rate was calculated by the following formula: Inhibitory rate=(ERsample−ER0%)/(ER100%−ER0%)×100%

PI3Kα = PI3Kα (Homo sapiens, UniProt P42336); assay: PI3K kinase activity, α isoform; conditions: for inhibition at 0.02 µM: read-out: IH (%) @ 20 nM, α
PI3Kα, sequence (P42336 whole entry, canonical isoform): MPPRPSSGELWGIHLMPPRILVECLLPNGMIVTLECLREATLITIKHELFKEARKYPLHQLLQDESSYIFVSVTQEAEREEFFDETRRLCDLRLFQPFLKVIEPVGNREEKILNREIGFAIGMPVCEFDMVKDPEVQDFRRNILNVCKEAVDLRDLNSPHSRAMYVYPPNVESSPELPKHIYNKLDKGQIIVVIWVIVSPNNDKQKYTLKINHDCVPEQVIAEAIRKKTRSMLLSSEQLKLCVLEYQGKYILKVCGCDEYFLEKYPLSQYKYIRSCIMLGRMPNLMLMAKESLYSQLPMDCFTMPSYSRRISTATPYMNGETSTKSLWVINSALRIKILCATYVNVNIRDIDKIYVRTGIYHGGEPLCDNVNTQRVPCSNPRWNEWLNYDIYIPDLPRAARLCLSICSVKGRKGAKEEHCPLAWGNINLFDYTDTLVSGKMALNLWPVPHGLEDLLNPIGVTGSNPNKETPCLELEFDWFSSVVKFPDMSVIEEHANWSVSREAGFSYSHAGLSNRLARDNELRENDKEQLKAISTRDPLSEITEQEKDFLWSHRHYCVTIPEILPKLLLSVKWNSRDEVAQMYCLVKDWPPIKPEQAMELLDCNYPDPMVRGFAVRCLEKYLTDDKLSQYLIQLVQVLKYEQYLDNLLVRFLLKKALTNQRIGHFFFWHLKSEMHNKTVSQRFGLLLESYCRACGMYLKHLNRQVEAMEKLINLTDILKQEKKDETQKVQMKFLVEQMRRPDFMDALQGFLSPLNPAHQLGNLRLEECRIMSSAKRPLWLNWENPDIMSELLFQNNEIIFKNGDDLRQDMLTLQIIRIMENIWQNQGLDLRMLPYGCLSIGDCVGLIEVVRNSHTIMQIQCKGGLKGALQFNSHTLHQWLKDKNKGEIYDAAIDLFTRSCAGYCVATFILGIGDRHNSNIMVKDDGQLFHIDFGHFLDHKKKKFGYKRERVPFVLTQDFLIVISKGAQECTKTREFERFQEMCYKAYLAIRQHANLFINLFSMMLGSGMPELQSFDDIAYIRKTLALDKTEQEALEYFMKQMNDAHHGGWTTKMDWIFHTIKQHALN
PI3Kα, sequence (P27986 whole entry partner, canonical isoform): as the sequence (P27986 whole entry partner, canonical isoform) above
Procedure: as §6, §7, §8

PI3Kγ = PI3Kγ (Homo sapiens, UniProt P48736); assay: PI3K kinase activity, γ isoform; assay type: biochemical; conditions: for inhibition at 0.1 µM: compound 100 nM, read-out: IH (%) @ 100 nM, γ;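 as to all read-outs here: kinase reaction run in 384-well plates, with inhibition normalised between the 0% and 100% reference reactions. IC50 derived from a ten-point, fourfold serial dilution series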
PI3Kγ, sequence (P48736 whole entry, canonical isoform): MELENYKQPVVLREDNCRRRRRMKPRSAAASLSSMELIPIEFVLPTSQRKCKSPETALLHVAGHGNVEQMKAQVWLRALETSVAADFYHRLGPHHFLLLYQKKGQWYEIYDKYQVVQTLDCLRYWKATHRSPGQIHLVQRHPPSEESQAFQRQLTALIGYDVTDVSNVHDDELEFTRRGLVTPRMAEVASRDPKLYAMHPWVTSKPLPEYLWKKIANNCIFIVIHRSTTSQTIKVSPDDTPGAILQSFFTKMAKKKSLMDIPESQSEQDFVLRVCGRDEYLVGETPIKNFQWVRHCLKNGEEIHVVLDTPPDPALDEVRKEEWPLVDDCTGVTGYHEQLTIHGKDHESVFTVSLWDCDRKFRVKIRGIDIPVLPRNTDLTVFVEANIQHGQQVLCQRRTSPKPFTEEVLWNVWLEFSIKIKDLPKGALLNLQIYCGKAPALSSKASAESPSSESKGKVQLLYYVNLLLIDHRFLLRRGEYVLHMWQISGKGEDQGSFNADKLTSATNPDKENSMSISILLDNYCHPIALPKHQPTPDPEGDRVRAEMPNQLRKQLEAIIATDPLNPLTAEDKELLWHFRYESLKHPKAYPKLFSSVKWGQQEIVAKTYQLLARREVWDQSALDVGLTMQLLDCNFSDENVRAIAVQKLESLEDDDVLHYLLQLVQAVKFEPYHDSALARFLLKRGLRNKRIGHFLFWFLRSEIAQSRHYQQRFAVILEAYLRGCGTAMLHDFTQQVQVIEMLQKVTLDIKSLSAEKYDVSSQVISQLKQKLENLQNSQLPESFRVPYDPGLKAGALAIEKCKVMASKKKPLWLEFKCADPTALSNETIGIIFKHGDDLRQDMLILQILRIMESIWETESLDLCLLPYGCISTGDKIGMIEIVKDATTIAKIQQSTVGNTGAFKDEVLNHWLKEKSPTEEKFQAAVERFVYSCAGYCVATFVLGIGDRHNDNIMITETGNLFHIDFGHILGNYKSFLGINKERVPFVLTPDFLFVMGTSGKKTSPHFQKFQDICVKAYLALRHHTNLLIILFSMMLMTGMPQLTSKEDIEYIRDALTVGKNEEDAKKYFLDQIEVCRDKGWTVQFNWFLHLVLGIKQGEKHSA
Procedure: as §6, §7, §8

PI3Kβ = PI3Kβ (Homo sapiens, UniProt P42338); assay: PI3K kinase activity, β isoform; conditions: for inhibition at 0.1 µM: read-out: IH (%) @ 100 nM, β;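 as to all read-outs here: kinase reaction containing 1% DMSO, read as an emission ratio, with inhibition scaled between the 0% and 100% control ratios. IC50 values come from a ten-point fourfold dilution series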
PI3Kβ, sequence (P42338 whole entry, canonical isoform): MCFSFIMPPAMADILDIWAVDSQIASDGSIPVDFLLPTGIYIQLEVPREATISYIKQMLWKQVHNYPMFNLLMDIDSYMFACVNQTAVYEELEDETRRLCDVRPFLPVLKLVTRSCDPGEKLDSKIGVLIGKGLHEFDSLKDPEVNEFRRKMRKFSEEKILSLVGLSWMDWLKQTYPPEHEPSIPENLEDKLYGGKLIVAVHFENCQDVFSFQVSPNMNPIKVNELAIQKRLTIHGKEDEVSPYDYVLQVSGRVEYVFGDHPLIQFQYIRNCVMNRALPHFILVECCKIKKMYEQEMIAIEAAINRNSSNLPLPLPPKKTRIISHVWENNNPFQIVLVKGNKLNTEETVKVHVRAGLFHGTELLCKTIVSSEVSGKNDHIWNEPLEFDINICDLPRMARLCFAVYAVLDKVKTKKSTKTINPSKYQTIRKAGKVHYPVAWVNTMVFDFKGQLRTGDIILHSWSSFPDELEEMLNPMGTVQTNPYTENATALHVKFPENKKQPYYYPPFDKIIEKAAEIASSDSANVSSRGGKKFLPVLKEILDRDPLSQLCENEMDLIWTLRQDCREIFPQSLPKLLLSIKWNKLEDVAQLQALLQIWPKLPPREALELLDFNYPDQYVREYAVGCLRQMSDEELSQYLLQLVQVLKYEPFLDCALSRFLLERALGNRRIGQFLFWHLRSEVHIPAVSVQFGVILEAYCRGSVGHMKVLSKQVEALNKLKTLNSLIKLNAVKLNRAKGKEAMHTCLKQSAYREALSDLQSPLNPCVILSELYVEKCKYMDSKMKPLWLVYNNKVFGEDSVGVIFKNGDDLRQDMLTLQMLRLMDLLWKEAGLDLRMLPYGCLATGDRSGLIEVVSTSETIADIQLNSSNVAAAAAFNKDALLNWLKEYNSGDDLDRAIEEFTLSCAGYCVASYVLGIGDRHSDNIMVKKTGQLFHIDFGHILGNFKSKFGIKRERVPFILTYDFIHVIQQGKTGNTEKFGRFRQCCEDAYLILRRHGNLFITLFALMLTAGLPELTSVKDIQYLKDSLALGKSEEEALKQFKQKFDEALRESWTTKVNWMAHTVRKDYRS
PI3Kβ, sequence (P27986 whole entry partner, canonical isoform): as the sequence (P27986 whole entry partner, canonical isoform) above
Procedure: as §6, §7, §8

[1] = Preliminary pharmacokinetic test, intravenous injection; assay type: in vivo, SD rats; conditions: rats, intravenous injection 5 mg/kg, tested as monomesylate
Procedure: (§1) 1. 14 healthy SD rats, male, weigh 200-220 g, were taken to be randomly divided into 4 groups, 3-4 in each group, and were administered the tested compound P-17 and compound CYH33 (compared with compound P-17, missing a methyl group on 7-position) via intragastric administration (10 mg/kg) and intravenous injection (5 mg/kg) respectively, the specific arrangements are shown in the following table 3:
(§2) The rats were fasted for 12 h before experiment, water was taken freely. The rats were fed 2 h after dosing.
Dosing via intravenous: 5 min, 0.25 h, 0.5 h, 1.0 h, 2.0 h, 4.0 h, 6.0 h, 8.0 h, and 24 h after dosing.
(§3) At the above setting time points, 0.3 ml of venous blood was taken from the retroorbital venous plexus of the rat, and placed in a heparinized test tube, centrifuged at 11,000 rpm for 5 min, then the plasma was separated, and frozen in a refrigerator at −20° C.
(§4) LC/MS/MS method was used to determine the concentration of the compounds in the plasma of rats.
(§5) The non-compartment model of Phoenix 1.3 software (Pharsight Corporation, USA) was used to calculate the pharmacokinetic parameters after dosing.

[2] = Preliminary pharmacokinetic test, intragastric administration; assay type: in vivo, SD rats; conditions: rats, 10 mg/kg versus 5 mg/kg intravenous; monomesylate
Procedure: as §1, §2
Dosing via intragastric administration: 0.25 h, 0.5 h, 1.0 h, 2.0 h, 3.0 h, 4.0 h, 6.0 h, 8.0 h, and 24 h after dosing.
as §3, §4, §5

[3] = male, SD, rat, plasma, iv, 5 mg/kg, individual animal

Row | IC50 (PI3Kδ) [nM] | inhibition at 0.02 µM (PI3Kδ) [%] | IC50 (PI3Kα) [nM] | inhibition at 0.02 µM (PI3Kα) [%] | IC50 (PI3Kγ) [nM] | inhibition at 0.1 µM (PI3Kγ) [%] | IC50 (PI3Kβ) [nM] | inhibition at 0.1 µM (PI3Kβ) [%] | Structure (SMILES) | other results
1 | 85.6 | 63.3 | 77.5 | 24.8 | 1950 | 6.83 | 2650 | 3.44 | Cc1c(CN2CCN(C(=O)[C@H](C)O)CC2)cc2c(N3CCOCC3)nc(-c3cnc(N)cc3C(F)(F)F)nn12 [Compound P-14] | 
2 | 35.3 | 41.4 | 624 | 69.7 | 9870 | -4.8 | 4570 | 11.8 | CCN1CCN(Cc2cc3c(N4CCOCC4)nc(-c4cnc(N)cc4C(F)(F)F)nn3c2C)CC1 [Compound P-6] | selectivity for PI3Kδ (in words) (PI3Kδ): selective inhibitory effect on PI3Kδ; also recorded: good selectivities for PI3Kδ
3 | 79.7 | 39.7 | 104 | 80.5 | 202 | 32.1 | 1770 | 7.84 | Cc1c(CN2CCN(S(C)(=O)=O)CC2)cc2c(N3CCOC[C@@H]3C)nc(-c3cnc(N)cc3C(F)(F)F)nn12 [Compound P-10] | 
4 | 28.1 | 50.3 | 21.3 | 72.8 | 248 | 19.4 | 1440 | 15.8 | CS(=O)(=O)N1CCN(Cc2cc3c(N4CCOCC4)nc(-c4cnc(N)cc4C(F)(F)F)nn3c2Cl)CC1 [Compound P-11] | 
5 | 10.1 | 77.1 | 18.7 | 77.9 | 47.1 | 67 | 109 | 32.6 | Cc1c(CN2CCN(S(C)(=O)=O)CC2)cc2c(N3CCOCC3)nc(-c3cnc(NC(=O)Nc4ccc(F)cc4)cc3C(F)(F)F)nn12 [Compound P-23] | 
6 | 23.7 | 51.2 | 26.4 | 68.9 | 283 | 31.4 | 1190 | 12.8 | Cc1c(CN2CCN(S(C)(=O)=O)CC2)cc2c(N3CCOCC3)nc(-c3cnc(N)cc3C(F)(F)F)nn12 [Compound P-9] | 
7 |  | 56.3 |  | 41.7 |  |  |  | 21.1 | CS(=O)(=O)N1CCN(Cc2cc3nc(-c4cccc5[nH]ncc45)nc(N4CCOCC4)c3s2)CC1 [GDC0941, 2-(1H-indazol-4-yl)-6-[[4-(methylsulfonyl)-1-piperazinyl]methyl]-4-(4-morpholinyl)thieno[3,2-D]pyrimidine, reference compound] | 
8 |  |  |  |  |  |  |  |  | COC(=O)Nc1cc(C(F)(F)F)c(-c2nc(N3CCOCC3)c3cc(CN4CCN(S(C)(=O)=O)CC4)cn3n2)cn1 [CYH33, reference compound] | AUC(0-t) ([1]; male, SD, rat, plasma, iv, 5 mg/kg, Mean): 3540 ng·h/mL; MRT ([1]; male, SD, rat, plasma, iv, 5 mg/kg, Mean, read-out: MRT): 1.31 h; AUC(0-inf) [1, 3]: 2850 ng·h/mL; AUC(0-t) [1, 3]: 2850 ng·h/mL; clearance [1, 3]: 29.2 mL/min/kg; half-life [1, 3]: 49.8 min; MRT ([1]; male, SD, rat, plasma, iv, 5 mg/kg, individual animal, read-out: MRT): 1.1 h; Vd ([1]; male, SD, rat, plasma, iv, 5 mg/kg, individual animal, read-out: Vss): 1.93 L/kg; AUC 0 − ∞ ([1]; Mean): 3559 ng·h/mL; Cl ([1]; Mean): 1.44 L/h/kg; T1/2 ([1]; Mean): 58.9 min; Vss ([1]; Mean): 1.843 L/kg; AUC 0 − t ([1]; individual animal, 5 mg/kg): 3645 ng·h/mL and 4142 ng·h/mL; AUC 0 − ∞ ([1]; individual animal, 5 mg/kg): 3655 ng·h/mL and 4172 ng·h/mL; Cl ([1]; individual animal, 5 mg/kg): 1.37 L/h/kg and 1.2 L/h/kg; MRT ([1]; individual animal, 5 mg/kg): 1.26 h and 1.57 h; T1/2 ([1]; individual animal, 5 mg/kg): 57 min and 69.6 min; Vss ([1]; individual animal, 5 mg/kg): 1.72 L/kg and 1.88 L/kg; F (absolute bioavailability) [2]: 36.9%
9 | 27.6 | 53.6 | 439 | 3.6 | 15300 | -7.96 | 3460 | 3.43 | Cc1c(CN2CCC(N(C)C)CC2)cc2c(N3CCOCC3)nc(-c3cnc(N)cc3C(F)(F)F)nn12 [Compound P-7] | selectivity for PI3Kδ (in words) (PI3Kδ): selective inhibitory effect on PI3Kδ; also recorded: good selectivities for PI3Kδ

Reference: patent US11214572B2, “7-site substituted pyrrole triazine compounds or pharmaceutically acceptable salts thereof, and preparation method thereof and uses thereof” (SHANGHAI INSTITUTE OF MATERIA MEDICA, CHINESE ACADEMY OF …, priority 2017, dated 2022)
